In experiment [1] the test system is MOG35-55-reactive T-cells (spleenocytes harvested at 26 DPI). The experiment is described as follows: Ex-vivo MOG35-55 re-stimulation of spleenocytes from EAE mice. It counts as in vivo, mouse. Conditions: mice treated with single dose 1mg/kg. Here is the method:
Fig 3 Administration of HTLV FP alleviates MOG35-55-induced EAE. (A-B) MOG35-55–antigen specific T-cells were activated by irradiated MOG35-55 presenting APCs, in the presence of HTLV FP or HTLV Scr at 10μM. (A) The proliferative responses were assessed by H^3-thymidine incorporation assay, and normalized to the proliferation of non-activated T-cells. The data is presented as mean inhibition of proliferation. n = 12. (B) IFN-γ was measured by ELISA assay. n = 12. (C-D) EAE was induced in C57BL/6 female mice that were treated with a single dose of HTLV FP, HTLV Scr or vehicle. […] (C) Direct clinical measurement of EAE phenotype in a 5-point scale with increased disease symptoms correlating with higher score value. The data is presented as mean EAE clinical score. (D) Mice were weighed the day before EAE induction, and the change (as a percentage) in weight was recorded. The data is presented as mean change from the initial weight. One-way ANOVA was used for statistical analysis. ^a HTLV FP ≠ Vehicle; ^b HTLV FP ≠ Vehicle & HTLV Scr; ^c HTLV FP ≠ HTLV Scr. ^a,b,cP<0.05. (E) Spleenocytes were harvested at 26 DPI and stimulated using MOG35-55. The proliferative responses were assessed by H^3-thymidine incorporation assay and normalized to the proliferation of non-activated T-cells. The data is presented as counts per minute (CPM). n = 7. (F-G) Spleenocytes were harvested at 26 DPI and stimulated using MOG35-55. Media was collected 48 hours following activation and secretion of IFN-γ and IL4 was measured by ELISA assay. […] One-way ANOVA was used for statistical analysis. *P<0.05;**P<0.01;***P<0.001; ns, not significant.
We then performed an additional EAE experiment in which mice were treated with a single dose of HTLV FP (1mg/kg), HTLV Scr (1mg/kg) or vehicle. […] As disease manifestation was milder compared to the previous experiment, we were able to monitor animals for a longer period of time. […]

The test system of experiment [2] is MOG35-55–antigen specific T-cells. The experiment is described as follows: T-bet and Gata3 expression detected by FACS. The experiment is classed as cell-based, mouse (C57Bl/6J). Conditions: peptide at 10μM, APC activation, n = 3. Here is the method:
(A-B) MOG35-55–antigen specific T-cells were activated by irradiated MOG35-55 presenting APCs, in the presence of the HTLV FP at 10μM. Total RNA was isolated 24 hours following activation and mRNA expression levels were determined by qRT-PCR. The values of each gene were normalized to Rpl13a as a housekeeping control. The HTLV FP reduces TBX21 (T-bet) mRNA expression and elevates GATA3 mRNA expression. The data is presented as arbitrary units. n≥3. (C-H) MOG35-55–antigen specific T-cells were activated by irradiated MOG35-55 presenting APCs, in the presence of either HTLV or HIV FP at 10μM. Samples were fixed in 4% PFA and stained with anti T-bet-APC and anti Gata3-FITC antibodies (C-D) 24, (E-F) 48 and (G-H) 72 hours following activation. Each time point is represented as cell count vs. APC or FITC fluorescence histogram. Analysis was performed using LSR-II flow cytometer (BD) and FlowJo cell analysis software (FlowJo, LLC). The HTLV FP reduces T-bet expression and elevates Gata3 expression. n = 3. One-way ANOVA was used for statistical analysis. ns, not significant; *P<0.05;** P<0.01.
Antigen-specific T-cells were plated onto round 12-well plates (10^6 cells/ well) and activated with 5x10^5 irradiated (25 gray) APC and 5μg/ml of MOG p35-55 in the presence or absence of relevant peptides. Cells were washed with PBS, blocked (5% Donkey serum, 2% BSA and 0.1% Triton in PBS) and fixed with 4% Paraformaldehyde (PFA) 24 hour following activation. Cells were then stained with Gata3-FITC and T-bet-APC fluorochrome-labeled monoclonal mouse antibodies (purchased from Miltenyi Biotec) according to Miltenyi Biotec protocols. Samples were then collected using LSR-II flow cytometer and analyzed with FlowJo cell analysis software.
For orientation: In flow cytometry, cells or beads pass a laser one at a time.

[3] abbreviates: harvested at 26 DPI, media 48 hours following activation, ELISA, n>8, compared to vehicle and HTLV Scr groups.

On to “AVPVAVWLVSALAMGAGVAGGITGSMSLASGKS [HTLV FP, gp21 fusion peptide of HTLV-1, MT-2 isolate]”, for which, in experiment [1] (setting [3]), the “IFN-γ secretion of spleenocytes stimulated with MOG35-55” value is reported as “significantly lower IFN-γ secretion” and the “IL4 secretion of spleenocytes stimulated with MOG35-55” value is listed as “significantly higher IL4 secretion”. In experiment [1] (spleens harvested at 26 DPI, H3-thymidine incorporation, CPM, n = 7), the “T-cell proliferative response of spleenocytes stimulated with MOG35-55” value is reported as “significantly lower in HTLV FP treated spleenocytes compared to HTLV Scr treated spleenocytes”. Further, in experiment [2] (24 hours following activation), the “Gata3 expression (protein), 24 hours” value is “elevated Gata3 expression” and the “T-bet expression (protein), 24 hours” value is recorded as “reduced T-bet expression”. For the same sequence, in experiment [2] (48 hours following activation), the “Gata3 expression (protein), 48 hours” value is recorded as “elevated Gata3 expression” and the “T-bet expression (protein), 48 hours” value is “reduced T-bet expression”. For the same sequence, in experiment [2] (72 hours following activation), the “Gata3 expression (protein), 72 hours” value is “elevated Gata3 expression” and the “T-bet expression (protein), 72 hours” value was “no difference was observed”.

For the origin of these results see publication PMC5955599, “The HTLV-1 gp21 fusion peptide inhibits antigen specific T-cell activation in-vitro and in mice” (PLoS Pathogens, 2018).
